Laboratory results as given in the NIST ThermoML archive (doi:10.1016/j.tca.2016.05.013).
Numbers after ± are expanded uncertainties.

Experiments:
[1] = mn = molality of the nth substance listed, in mol/kg; details: 86.8 kPa, Liquid; for viscosity: Falling or rolling sphere viscometry; for speed of sound: Frequency=3 MHz, Sing-around technique in a fixed-path interferometer; for mass density: Vibrating tube method
[2] = refractive index (Na D-line) (dimensionless); mn = molality of the nth substance listed, in mol/kg; details: 86.8 kPa, Liquid, Standard Abbe refractometry

CCCCn1cc[n+](C)c1.O=C([O-])c1ccccc1O [1-butyl-3-methylimidazolium salicylate] + O
Details	mass density, [1] [kg/m3]	refractive index, [2]	speed of sound, [1] [m/s]	viscosity, [1] [mPa·s]
288.15 K, m1 = 0.1012	–	–	–	1.289 ± 0.035
288.15 K, m1 = 0.1032	1004.94 ± 1.2	1.3381 ± 0.004	1484.4 ± 1.2	1.296 ± 0.035
288.15 K, m1 = 0.1055	1005.04 ± 1.2	1.3383 ± 0.004	1484.4 ± 1.2	–
288.15 K, m1 = 0.2001	1010.28 ± 3.6	1.3427 ± 0.004	1499.1 ± 1.2	–
288.15 K, m1 = 0.2005	1010.45 ± 3.6	1.3429 ± 0.004	1499.5 ± 1.2	–
288.15 K, m1 = 0.2124	–	–	–	1.432 ± 0.036
288.15 K, m1 = 0.2146	–	–	–	1.44 ± 0.036
288.15 K, m1 = 0.2965	1015.79 ± 1.2	1.3479 ± 0.004	1513.9 ± 1.3	–
288.15 K, m1 = 0.3002	1015.82 ± 1.2	1.3479 ± 0.004	1513.6 ± 1.3	–
288.15 K, m1 = 0.3146	–	–	–	1.535 ± 0.036
288.15 K, m1 = 0.3152	–	–	–	1.536 ± 0.036
298.15 K, m1 = 0.1012	–	–	–	1.037 ± 0.035
298.15 K, m1 = 0.1032	1002.65 ± 1.3	1.3376 ± 0.004	1512 ± 1.2	1.042 ± 0.035
298.15 K, m1 = 0.1055	1002.65 ± 1.3	1.3376 ± 0.004	1511.9 ± 1.2	–
298.15 K, m1 = 0.2001	1007.67 ± 10	1.342 ± 0.004	1524.5 ± 1.2	–
298.15 K, m1 = 0.2005	1007.91 ± 1.9	1.342 ± 0.004	1524.8 ± 1.2	–
298.15 K, m1 = 0.2124	–	–	–	1.159 ± 0.035
298.15 K, m1 = 0.2146	–	–	–	1.162 ± 0.035
298.15 K, m1 = 0.2965	1012.99 ± 1.3	1.3468 ± 0.004	1537 ± 1.3	–
298.15 K, m1 = 0.3002	1012.91 ± 1.5	1.3468 ± 0.004	1537 ± 1.3	–
298.15 K, m1 = 0.3146	–	–	–	1.256 ± 0.035
298.15 K, m1 = 0.3152	–	–	–	1.253 ± 0.035
308.15 K, m1 = 0.1012	–	–	–	0.869 ± 0.035
308.15 K, m1 = 0.1032	999.4 ± 1.3	1.3365 ± 0.004	1532.3 ± 1.2	0.872 ± 0.035
308.15 K, m1 = 0.1055	999.44 ± 1.3	1.3365 ± 0.004	1532.4 ± 1.2	–
308.15 K, m1 = 0.2001	1004.28 ± 8	1.3407 ± 0.004	1543.5 ± 1.3	–
308.15 K, m1 = 0.2005	1004.44 ± 1.9	1.3408 ± 0.004	1543.3 ± 1.3	–
308.15 K, m1 = 0.2124	–	–	–	0.981 ± 0.035
308.15 K, m1 = 0.2146	–	–	–	0.986 ± 0.035
308.15 K, m1 = 0.2965	1009.39 ± 1.5	1.3456 ± 0.004	1553.8 ± 1.3	–
308.15 K, m1 = 0.3002	1009.41 ± 1.5	1.3455 ± 0.004	1553.8 ± 1.3	–
308.15 K, m1 = 0.3146	–	–	–	1.078 ± 0.035
308.15 K, m1 = 0.3152	–	–	–	1.076 ± 0.035
318.15 K, m1 = 0.1012	–	–	–	0.748 ± 0.034
318.15 K, m1 = 0.1032	995.42 ± 1.2	1.335 ± 0.004	1546.8 ± 1.2	0.751 ± 0.034
318.15 K, m1 = 0.1055	995.43 ± 1.2	1.3352 ± 0.004	1547.3 ± 1.2	–
318.15 K, m1 = 0.2001	1000.19 ± 2	1.3393 ± 0.004	1555.9 ± 1.3	–
318.15 K, m1 = 0.2005	1000.27 ± 2	1.3395 ± 0.004	1556 ± 1.3	–
318.15 K, m1 = 0.2124	–	–	–	0.87 ± 0.035
318.15 K, m1 = 0.2146	–	–	–	0.876 ± 0.035
318.15 K, m1 = 0.2965	1005.07 ± 1.2	1.344 ± 0.004	1565 ± 1.3	–
318.15 K, m1 = 0.3002	1004.98 ± 1.2	1.344 ± 0.004	1564.8 ± 1.3	–
318.15 K, m1 = 0.3146	–	–	–	0.962 ± 0.035
318.15 K, m1 = 0.3152	–	–	–	0.96 ± 0.035
